Species: Rattus norvegicus
Assay: Open TG-GATES - Regimen: Daily Repeat
Assay type: toxicity, organism-based, Sprague-Dawley
Design: regimen Daily Repeat, gender Male, age 6 weeks
Settings: in vivo, po, route gavage; for APTT / Bas / Eos / Fbg / Ht / Lym / MCH / MCHC / MCV / PT / Plat / RBC / Ret / WBC / Hb / Mono / Neu: tissue Blood; for KIDNEY_L / KIDNEY_R / KIDNEY_TOTAL: tissue Kidney; for LIVER: tissue Liver; for ALP / ALT / AST / CRE / Ca / Cl / DBIL / IP / K / LDH / Na / PL / RALB / TBIL / TC / TG / TP / gamma-GTP / BUN: tissue Plasma
[1] = 0 mg/kg, 72 h, dose level Control, time 3 day
[2] = 0 mg/kg, […], dose level Control, time 14 day
[3] = 0 mg/kg, […], dose level Control, time 28 day
[4] = 1 mg/kg, 72 h, dose level Low, time 3 day
[5] = 1 mg/kg, […], dose level Low, time 14 day
[6] = 1 mg/kg, […], dose level Low, time 28 day

In the case of `C#C[C@]1(O)CC[C@H]2[C@@H]3CCc4cc(O)ccc4[C@H]3CC[C@@]21C` [ETHINYL ESTRADIOL], the TERMINAL_BW [1] was 222.5 g, the APTT [1] was 16.4 s and the Bas [1] was 0.2%. The Eos [1] was 1%, the Fbg [1] was 261.6 mg/dL and the Ht [1] was 40.2%. For the same compound, the Lym [1] was 79%, the MCH [1] was 21.4 pg and the MCHC [1] was 33.5%. The MCV [1] was 63.8 fL, the PT [1] was 12.3 s and the Plat [1] was 110.8 x10_4/uL. It also gave an RBC [1] of 630.4 x10_4/ul, a Ret [1] of 7.8% and a WBC [1] of 93.3 x10_2/uL. The KIDNEY_L [1] was 0.9 g, the KIDNEY_R [1] was 1 g and the LIVER [1] was 10.3 g. For the same compound, the ALP [1] was 1467.2 IU/L, the ALT [1] was 49.6 IU/L and the AST [1] was 73.2 IU/L. For the same compound, the CRE [1] was 0.2 mg/dL, the Ca [1] was 10.8 mg/dL and the Cl [1] was 106.8 meq/L. It also gave a DBIL [1] of 0.018 mg/dL, an IP [1] of 6.5 mg/dL and a K [1] of 4 meq/L. For the same compound, the LDH [1] was 68.4 IU/L, the Na [1] was 143.2 meq/L and the PL [1] was 134.2 mg/dL. The RALB [1] was 2.6 g/dL, the TBIL [1] was 0.034 mg/dL and the TC [1] was 77.8 mg/dL. It also gave a TG [1] of 98.2 mg/dL, a TP [1] of 5.5 g/dL and a gamma-GTP [1] of 1.2 IU/L. The TERMINAL_BW [2] was 321.6 g, the TERMINAL_BW [3] was 423 g and the APTT [2] was 16.7 s. For the same compound, the Bas [2] was 0%, the Eos [2] was 1% and the Fbg [2] was 279.4 mg/dL. It also gave a Hb [2] of 13.9 g/dL, a Ht [2] of 40.3% and a Lym [2] of 76.4%. For the same compound, the MCH [2] was 20.9 pg, the MCV [2] was 60.2 fL and the Mono [2] was 2.4%. For the same compound, the PT [2] was 11.8 s, the Plat [2] was 120 x10_4/uL and the RBC [2] was 668.4 x10_4/ul. It also gave a Ret [2] of 4.5%, a WBC [2] of 90.3 x10_2/uL and an APTT [3] of 18 s. For the same compound, the Bas [3] was 0.2%, the Eos [3] was 1% and the Fbg [3] was 294.2 mg/dL. For the same compound, the Hb [3] was 15 g/dL, the Ht [3] was 42.5% and the Lym [3] was 79.4%. It also gave an MCH [3] of 20.3 pg, an MCHC [3] of 35.3% and an MCV [3] of 57.3 fL. The Mono [3] was 2.2%, the Plat [3] was 88.3 x10_4/uL and the RBC [3] was 742.6 x10_4/ul. For the same compound, the Ret [3] was 2.6%, the WBC [3] was 108.2 x10_2/uL and the KIDNEY_L [2] was 1.3 g. The KIDNEY_R [2] was 1.3 g, the KIDNEY_TOTAL [2] was 2.6 g and the KIDNEY_L [3] was 1.4 g. For the same compound, the KIDNEY_R [3] was 1.4 g, the KIDNEY_TOTAL [3] was 2.8 g and the LIVER [2] was 14.4 g. The LIVER [3] was 18.3 g, the ALP [2] was 1586.6 IU/L and the ALT [2] was 44.2 IU/L. For the same compound, the AST [2] was 66.6 IU/L, the BUN [2] was 15.4 mg/dL and the CRE [2] was 0.2 mg/dL. It also gave a Ca [2] of 11.3 mg/dL, a Cl [2] of 104.8 meq/L and a DBIL [2] of 0.016 mg/dL. It also gave an IP [2] of 6.5 mg/dL, a K [2] of 3.9 meq/L and an LDH [2] of 72.8 IU/L. It also gave a Na [2] of 143.2 meq/L, a PL [2] of 143 mg/dL and a TBIL [2] of 0.07 mg/dL. The TC [2] was 74.6 mg/dL, the TG [2] was 104.4 mg/dL and the TP [2] was 6 g/dL. The gamma-GTP [2] was 0.8 IU/L, the ALP [3] was 1125 IU/L and the ALT [3] was 39.4 IU/L. It also gave an AST [3] of 58 IU/L, a BUN [3] of 16 mg/dL and a CRE [3] of 0.2 mg/dL. The Cl [3] was 104.8 meq/L, the DBIL [3] was 0.012 mg/dL and the IP [3] was 6.1 mg/dL. It also gave a K [3] of 3.8 meq/L, an LDH [3] of 59.2 IU/L and a Na [3] of 143.2 meq/L. The PL [3] was 155.8 mg/dL, the RALB [3] was 2.9 g/dL and the TBIL [3] was 0.066 mg/dL. It also gave a TC [3] of 80.4 mg/dL, a TG [3] of 137.2 mg/dL and a TP [3] of 6.3 g/dL. It also gave a gamma-GTP [3] of 1 IU/L, a TERMINAL_BW [4] of 204.6 g and an APTT [4] of 17 s. For the same compound, the Bas [4] was 0%, the Eos [4] was 1% and the Fbg [4] was 309.6 mg/dL. The Ht [4] was 39.1%, the Lym [4] was 82.4% and the MCHC [4] was 34.2%. For the same compound, the MCV [4] was 62.3 fL, the Mono [4] was 3.6% and the Neu [4] was 12.6%. The PT [4] was 13.1 s, the Plat [4] was 107.6 x10_4/uL and the RBC [4] was 627.4 x10_4/ul. The Ret [4] was 5.1%, the WBC [4] was 72 x10_2/uL and the KIDNEY_L [4] was 1 g. The KIDNEY_R [4] was 1 g, the KIDNEY_TOTAL [4] was 2 g and the LIVER [4] was 11.7 g. For the same compound, the ALP [4] was 2115.4 IU/L, the ALT [4] was 41.2 IU/L and the AST [4] was 84.2 IU/L. The BUN [4] was 9.4 mg/dL, the CRE [4] was 0.2 mg/dL and the Ca [4] was 10.6 mg/dL. For the same compound, the Cl [4] was 107.4 meq/L, the DBIL [4] was 0.038 mg/dL and the IP [4] was 7.4 mg/dL. It also gave a K [4] of 4 meq/L, an LDH [4] of 95.4 IU/L and a Na [4] of 144 meq/L. It also gave a PL [4] of 82.6 mg/dL, an RALB [4] of 2.6 g/dL and a TBIL [4] of 0.07 mg/dL. The TC [4] was 29.4 mg/dL, the TG [4] was 73.6 mg/dL and the TP [4] was 5.6 g/dL. The gamma-GTP [4] was 1.2 IU/L, the TERMINAL_BW [5] was 243.2 g and the TERMINAL_BW [6] was 264.8 g. It also gave an APTT [5] of 23 s, a Bas [5] of 0% and an Eos [5] of 1%. The Fbg [5] was 328.6 mg/dL, the Hb [5] was 13.9 g/dL and the Ht [5] was 38.9%. It also gave a Lym [5] of 77.6%, an MCH [5] of 20.1 pg and an MCHC [5] of 35.6%. For the same compound, the MCV [5] was 56.3 fL, the PT [5] was 13.5 s and the Plat [5] was 120.8 x10_4/uL. For the same compound, the RBC [5] was 690.2 x10_4/ul, the Ret [5] was 1.8% and the WBC [5] was 80.9 x10_2/uL. It also gave an APTT [6] of 27.7 s, a Bas [6] of 0% and an Eos [6] of 1%. It also gave a Fbg [6] of 328.6 mg/dL, a Hb [6] of 14.3 g/dL and a Ht [6] of 39%. The Lym [6] was 77.6%, the MCH [6] was 19.9 pg and the MCHC [6] was 36.7%. The MCV [6] was 54.2 fL, the Mono [6] was 2.6% and the Neu [6] was 18.8%. The PT [6] was 13.6 s, the Plat [6] was 113.5 x10_4/uL and the RBC [6] was 720.8 x10_4/ul. It also gave a Ret [6] of 2.4%, a WBC [6] of 82.1 x10_2/uL and a KIDNEY_L [5] of 1 g. It also gave a KIDNEY_R [5] of 1 g, a KIDNEY_TOTAL [5] of 2 g and a KIDNEY_L [6] of 1 g. It also gave a KIDNEY_R [6] of 1 g, a KIDNEY_TOTAL [6] of 2 g and an LIVER [5] of 13.6 g. It also gave an LIVER [6] of 14.4 g, an ALP [5] of 1995.4 IU/L and an ALT [5] of 41 IU/L. For the same compound, the AST [5] was 53.8 IU/L, the BUN [5] was 13.2 mg/dL and the CRE [5] was 0.2 mg/dL. The Cl [5] was 105.8 meq/L, the DBIL [5] was 0.03 mg/dL and the IP [5] was 5.7 mg/dL. It also gave a K [5] of 3.9 meq/L, an LDH [5] of 60.8 IU/L and a Na [5] of 143.8 meq/L. The PL [5] was 105.4 mg/dL, the RALB [5] was 2.9 g/dL and the TBIL [5] was 0.084 mg/dL. The TC [5] was 33.4 mg/dL, the TG [5] was 68 mg/dL and the TP [5] was 6.5 g/dL. For the same compound, the ALP [6] was 1546.2 IU/L, the ALT [6] was 37.8 IU/L and the AST [6] was 50.6 IU/L. For the same compound, the BUN [6] was 14 mg/dL, the CRE [6] was 0.3 mg/dL and the Ca [6] was 10.8 mg/dL. It also gave a Cl [6] of 105.4 meq/L, a DBIL [6] of 0.036 mg/dL and an IP [6] of 5.3 mg/dL. For the same compound, the K [6] was 3.6 meq/L, the LDH [6] was 38 IU/L and the Na [6] was 144 meq/L. It also gave a PL [6] of 147 mg/dL and an RALB [6] of 3 g/dL.

Reference: ChEMBL document CHEMBL3885861, “Open TG-GATES”
